Laboratory results published in patent US20080153758A1, “Compounds Which Inhibits Protein Prenylation E.G. Geranylgeransferse or Farnesyltransferase Inhibitors for Treating Parkinson's Disease” (priority 2004, published 2008).

Key:
FTase = FTase (Homo sapiens, UniProt P49354+P49356); conditions: read-out: FTase IC50; cited from earlier work
GGTase I = GGTase I (Homo sapiens, UniProt P49354+P53609); conditions: read-out: GGTase I / PGGTase-I IC50; cited from earlier work
mammary tumors = conditions: cited from earlier work
[1] = cell-based assays (Law et al. 2000; Birkenkamp et al. 2004); cited from earlier work
SH-SY5Y cells = experiment: MTT cell viability of 6-OHDA treated SH-SY5Y cells; type: cell-based, human
Protocol: To test whether inhibition of Ras farnesylation could protect SH-SY5Y cells against 6-OHDA induced oxidative stress, a Ras farnesyltransferase inhibitor, L-744,832, was used in 6-OHDA treated SH-SY5Y cells.
SH-SY5Y cells were plated in 24 well plates (ATGC, France) at the initial density of 3*10^5 cells/well. After 24 hours, cells were pretreated with L-744,832 for 6 hours at concentrations ranging from 20 nM to 40 μM. Then, 6-OHDA (Sigma) diluted in PBS was added to the wells at the concentration of 50 μM. After 17 h incubation, an MTT assay was conducted to reveal cell viability, which was measured as normalized optical densities values (treated cells/untreated control cells), where a value of 1 represents 100% neuronal survival and a value of 0.6 represents 60% survival.

Compound | IC50 (FTase) [nM] | other results
CC(=O)N(c1ccc(C)cc1)c1ccc(NC(=O)CCCCc2ccccc2)cc1C(=O)c1ccccc1 | 390 | 
CSCC[C@@H](NC(=O)[C@H]1Cc2ccccc2CN1C(=O)[C@@H](NCCc1c[nH]cn1)C(C)C)C(=O)O (relative stereo) [BMS-193269, (R*)-N-[[1,2,3,4-Tetrahydro-2-[N-[2-(1H-imidazol-4-yl)ethyl]-L-valyl]-3-isoquinolinyl]carbonyl]-L-methionine] | 0.79 | 
O=[N+]([O-])[C@H]1C(c2ccccc2Br)CCN(Cc2cccnc2)[C@@H]1c1ccc(O)c(O)c1 (single isomer, unassigned; (+)) [(+)-4-(2-Bromophenyl)-2-(3,4-dihydroxyphenyl)-3-nitro-1-(3-pyridylmethyl)piperidine] | 1.9 | 
CSCCC(NC(=O)C(C=CC(C=CC(N)CS)C(C)C)Cc1ccccc1)C(=O)O (stereo not drawn) [B956] | 11 | 
CSCC[C@H](NC(=O)[C@@H](NC(=O)[C@@H](NC(=O)CCP(=O)(O)C/C=C(\C)CC/C=C(\C)CCC=C(C)C)C(C)C)C(C)C)C(=O)O [BMS-186511] | 10 | 
CSCC[C@H](NC(=O)CN1C[C@H](N(C)C(=O)[C@H](N)CS)N=C(c2ccccc2)c2ccccc21)C(=O)O [BZA-2B] | 0.85 | 
CC(C)C[C@H](NC(=O)CN1C[C@H](N(C)C(=O)[C@H](N)CS)N=C(c2ccccc2)c2ccccc21)C(=O)O [BZA-4B] | 1.3 | 
CSCC[C@H](NC(=O)c1ccc(NC(=O)[C@@H](N)CS)cc1)C(=O)O [FTI-232, Cys-4-ABA-Met] | 50 | 
CSCC[C@H](NC(=O)c1ccc(NC[C@@H](N)CS)cc1)C(=O)O [FTI-249] | 50 | 
COC(=O)[C@H](CCSC)NC(=O)c1ccc(NC[C@@H](N)CS)cc1-c1ccccc1 [FTI-277] | 100 | 
CC(C)C[C@H](NC(=O)c1ccc(NC[C@@H](N)CS)cc1-c1ccccc1)C(=O)O [GGTI-287] |  | IC50 (GGTase I): 5 nM
C[C@H]([C@H](C/C=C/c1nc2ccccc2o1)c1ccc2c(c1)OCO2)N(Cc1ccc2ccccc2c1)C(=O)[C@H]1OC(C(=O)O)(C(=O)O)O[C@@H]1C(=O)O [J-104,134] | 5 | 
C[C@H]([C@H](C/C=C/c1nc2ccccc2o1)c1ccc2c(c1)OCO2)N(Cc1ccc2ccccc2c1)C(=O)[C@H]1OC(C(=O)O)(C(=O)O)O[C@@H]1C(=O)O [J-104,135] | 3.9 | 
CCC(C)C(COC(Cc1ccccc1)C(=O)NC(CCS(C)(=O)=O)C(=O)O)NCC(N)CS [L-739,750] | 1.8 | 
CC[C@H](C)[C@@H](CO[C@@H](Cc1ccccc1)C(=O)N[C@@H](CCS(C)(=O)=O)C(=O)OC(C)C)NC[C@@H](N)CS [L-744,832, (2S)-2-[[(2S)-2-[[(2S,3S)-2-[[(2R)-2-Amino-3-mercaptopropyl]amino]-3-methylpentyl]oxy]-1-oxo-3-phenylpropyl]amino]-4-(methylsulfonyl)-butanoic acid 1-methylethyl ester] |  | p70s6k phosphorylation in mammary tumors (mammary tumors; in vivo): inhibits; tumor regression (mammary tumors; transgenic mice): induces tumor regression; reported active concentration [1]: 25 to 60 µM; toxicity for SH-SY5Y cells (SH-SY5Y cells; SH-SY5Y cells): non toxic; survival ratio (SH-SY5Y cells; SH-SY5Y, 6 h pretreatment with L-744,832 (20 nM to 40 μM), 6-OHDA 50 μM, 17 h, MTT, control 38%): 53%; protective effect against cell death induced by ROS (in words) (SH-SY5Y cells; overnight treatment with 6-OHDA, FIG. 1): significant protective effect; protective effect (SH-SY5Y cells; overnight treatment with 6-OHDA, SH-SY5Y, MTT): 24%
COC(=O)[C@H](CCSC)N(C(=O)c1ccccc1)C1CCN(C(=O)[C@@H](N)CS)CC1 [Methyl N-benzoyl-N-(piperidin-4-yl-N-(R)-cysteinyl)-(S) methioninate] | 20 | 
Cn1cncc1C(N)(c1ccc(Cl)cc1)c1ccc2c(c1)c(-c1cccc(Cl)c1)cc(=O)n2C (stereo not drawn) [R115777, 6-[Amino(4-chlorophenyl)-1-methyl-1H-imidazol-5-ylmethyl]-4-(3-chlorophenyl)-1-methyl-2(1H)-quinolinone] | 0.86 | 
C=C(CCC12OC(C(=O)O)C(O)(C(=O)O)C(C(=O)O)(O1)C(OC(=O)C=CC(C)CC(C)CC)C2O)C(OC(C)=O)C(C)Cc1ccccc1 [Zaragozic acid, L-erythro-L-Glycero-D-altro-7-trideculo-7,4-furanosonic acid, 2,7-anhydro-3,4-di-C-carboxy-8,9,10,12,13-pentadeoxy-10-methylene-12-(phenylmethyl)-,11-acetate 5-(4,6-dimethyl-2-octenoate), [5(2E,4S,6S),7S]] | 50 | 
